Reference: PMC9851200, “Multiparameter phenotypic screening for endogenous TFEB and TFE3 translocation identifies novel chemical series modulating lysosome function” (Autophagy, 2022)

Key:
Type in all cases: binding
[1] = molecular target: kinases (KINOMEscan panel) (Homo sapiens, UniProt P36894); conditions: kinase BMPR1A; NEW KINOMEscan
[2] = molecular target: kinases (KINOMEscan panel) (Homo sapiens, UniProt P49336); conditions: CDK8; NEW KINOMEscan
[3] = molecular target: kinases (KINOMEscan panel) (Homo sapiens, UniProt Q13557); conditions: kinase CAMK2D; NEW KINOMEscan
kinases (KINOMEscan panel) (Homo sapiens, UniProt Q13557), sequence (Q13557 whole entry): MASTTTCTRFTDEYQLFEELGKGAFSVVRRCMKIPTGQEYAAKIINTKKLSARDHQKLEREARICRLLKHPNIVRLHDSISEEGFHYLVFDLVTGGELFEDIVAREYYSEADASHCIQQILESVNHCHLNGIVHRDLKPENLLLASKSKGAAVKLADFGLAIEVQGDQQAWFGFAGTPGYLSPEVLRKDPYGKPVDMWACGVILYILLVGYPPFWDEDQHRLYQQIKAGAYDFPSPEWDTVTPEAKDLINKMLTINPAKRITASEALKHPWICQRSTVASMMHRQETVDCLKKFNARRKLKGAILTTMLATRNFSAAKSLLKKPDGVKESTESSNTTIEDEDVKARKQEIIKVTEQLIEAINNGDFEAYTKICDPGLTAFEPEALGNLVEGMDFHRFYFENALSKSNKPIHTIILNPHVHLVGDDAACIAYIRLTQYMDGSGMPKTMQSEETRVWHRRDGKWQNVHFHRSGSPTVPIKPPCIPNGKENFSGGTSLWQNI

[4] = molecular target: kinases (KINOMEscan panel) (Homo sapiens, UniProt Q5S007); conditions: NEW KINOMEscan
[5] = molecular target: kinases (KINOMEscan panel) (Homo sapiens, UniProt Q13464); conditions: ROCK1; NEW KINOMEscan
kinases (KINOMEscan panel) (Homo sapiens, UniProt Q13464), sequence (Q13464 whole entry): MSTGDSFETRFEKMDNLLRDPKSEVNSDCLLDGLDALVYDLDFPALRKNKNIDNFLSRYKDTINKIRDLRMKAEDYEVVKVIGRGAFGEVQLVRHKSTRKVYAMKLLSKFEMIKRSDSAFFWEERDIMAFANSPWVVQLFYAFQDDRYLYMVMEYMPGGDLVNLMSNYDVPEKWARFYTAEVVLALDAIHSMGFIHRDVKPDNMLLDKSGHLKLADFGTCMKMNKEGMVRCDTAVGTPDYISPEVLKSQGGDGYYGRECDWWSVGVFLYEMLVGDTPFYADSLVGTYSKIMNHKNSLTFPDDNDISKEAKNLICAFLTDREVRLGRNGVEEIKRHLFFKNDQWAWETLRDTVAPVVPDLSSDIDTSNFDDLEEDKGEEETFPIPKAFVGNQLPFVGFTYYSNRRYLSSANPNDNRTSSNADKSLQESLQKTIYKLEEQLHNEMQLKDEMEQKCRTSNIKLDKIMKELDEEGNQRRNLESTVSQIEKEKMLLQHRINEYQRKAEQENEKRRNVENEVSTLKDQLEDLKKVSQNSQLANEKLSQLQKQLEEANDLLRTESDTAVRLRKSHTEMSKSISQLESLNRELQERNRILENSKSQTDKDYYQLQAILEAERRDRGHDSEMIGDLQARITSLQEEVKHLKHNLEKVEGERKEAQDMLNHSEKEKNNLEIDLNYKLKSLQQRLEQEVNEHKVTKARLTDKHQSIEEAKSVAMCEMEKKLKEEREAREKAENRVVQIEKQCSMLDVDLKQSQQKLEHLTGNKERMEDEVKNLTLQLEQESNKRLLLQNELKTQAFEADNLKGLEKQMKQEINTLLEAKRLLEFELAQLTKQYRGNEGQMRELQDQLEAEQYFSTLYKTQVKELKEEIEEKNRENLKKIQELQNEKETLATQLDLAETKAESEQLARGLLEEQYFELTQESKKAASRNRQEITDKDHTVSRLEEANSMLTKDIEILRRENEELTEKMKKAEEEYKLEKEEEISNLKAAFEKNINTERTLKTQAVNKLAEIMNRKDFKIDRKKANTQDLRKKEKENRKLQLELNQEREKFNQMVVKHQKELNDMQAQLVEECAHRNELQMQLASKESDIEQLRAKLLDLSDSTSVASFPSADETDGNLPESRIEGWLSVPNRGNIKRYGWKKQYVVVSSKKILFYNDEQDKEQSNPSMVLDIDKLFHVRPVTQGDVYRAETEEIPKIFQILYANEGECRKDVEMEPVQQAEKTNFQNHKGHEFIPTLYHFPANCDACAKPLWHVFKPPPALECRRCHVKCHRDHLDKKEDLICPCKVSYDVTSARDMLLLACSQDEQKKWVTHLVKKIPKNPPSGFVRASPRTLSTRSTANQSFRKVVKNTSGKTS

[6] = molecular target: kinases (KINOMEscan panel) (Homo sapiens, UniProt P00519, F317L); conditions: NEW KINOMEscan; for KINOMEscan ABL1(F317L)-phosphorylated: kinase ABL1(F317L)-phosphorylated
kinases (KINOMEscan panel) (Homo sapiens, UniProt P00519, F317L), sequence (P00519 whole entry F317L): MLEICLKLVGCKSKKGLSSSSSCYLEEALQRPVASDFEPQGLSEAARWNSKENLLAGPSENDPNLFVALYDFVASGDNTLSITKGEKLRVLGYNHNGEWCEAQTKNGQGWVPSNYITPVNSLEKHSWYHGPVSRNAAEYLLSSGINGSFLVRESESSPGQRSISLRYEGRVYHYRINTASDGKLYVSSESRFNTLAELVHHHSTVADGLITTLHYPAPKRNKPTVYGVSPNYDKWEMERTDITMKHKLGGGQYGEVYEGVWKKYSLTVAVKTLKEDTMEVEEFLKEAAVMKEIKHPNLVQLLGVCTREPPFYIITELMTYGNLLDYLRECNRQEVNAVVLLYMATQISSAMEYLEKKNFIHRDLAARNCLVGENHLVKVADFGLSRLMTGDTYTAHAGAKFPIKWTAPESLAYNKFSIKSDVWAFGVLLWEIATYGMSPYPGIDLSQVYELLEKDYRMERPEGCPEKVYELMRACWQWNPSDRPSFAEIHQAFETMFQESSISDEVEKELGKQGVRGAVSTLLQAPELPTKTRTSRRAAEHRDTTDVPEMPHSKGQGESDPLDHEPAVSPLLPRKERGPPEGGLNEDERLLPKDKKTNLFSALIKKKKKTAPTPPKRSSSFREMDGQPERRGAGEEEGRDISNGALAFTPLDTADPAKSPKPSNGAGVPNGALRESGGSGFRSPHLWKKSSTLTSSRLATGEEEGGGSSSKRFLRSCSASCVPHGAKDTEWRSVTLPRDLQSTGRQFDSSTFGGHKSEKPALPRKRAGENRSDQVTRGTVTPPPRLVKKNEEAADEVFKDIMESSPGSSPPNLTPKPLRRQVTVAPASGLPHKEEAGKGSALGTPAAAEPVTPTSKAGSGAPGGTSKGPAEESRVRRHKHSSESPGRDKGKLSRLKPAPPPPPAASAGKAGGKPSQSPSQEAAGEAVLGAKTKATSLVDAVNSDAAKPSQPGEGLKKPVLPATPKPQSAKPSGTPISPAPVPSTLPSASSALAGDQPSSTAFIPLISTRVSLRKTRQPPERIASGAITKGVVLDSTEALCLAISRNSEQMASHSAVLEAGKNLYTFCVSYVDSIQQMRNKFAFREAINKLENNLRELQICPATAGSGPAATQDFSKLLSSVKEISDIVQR

[7] = molecular target: kinases (KINOMEscan panel) (Homo sapiens, UniProt P07948); conditions: NEW KINOMEscan
[8] = molecular target: kinases (KINOMEscan panel) (Homo sapiens, UniProt Q9HBH9); conditions: MKNK2; NEW KINOMEscan
kinases (KINOMEscan panel) (Homo sapiens, UniProt Q9HBH9), sequence (Q9HBH9 whole entry): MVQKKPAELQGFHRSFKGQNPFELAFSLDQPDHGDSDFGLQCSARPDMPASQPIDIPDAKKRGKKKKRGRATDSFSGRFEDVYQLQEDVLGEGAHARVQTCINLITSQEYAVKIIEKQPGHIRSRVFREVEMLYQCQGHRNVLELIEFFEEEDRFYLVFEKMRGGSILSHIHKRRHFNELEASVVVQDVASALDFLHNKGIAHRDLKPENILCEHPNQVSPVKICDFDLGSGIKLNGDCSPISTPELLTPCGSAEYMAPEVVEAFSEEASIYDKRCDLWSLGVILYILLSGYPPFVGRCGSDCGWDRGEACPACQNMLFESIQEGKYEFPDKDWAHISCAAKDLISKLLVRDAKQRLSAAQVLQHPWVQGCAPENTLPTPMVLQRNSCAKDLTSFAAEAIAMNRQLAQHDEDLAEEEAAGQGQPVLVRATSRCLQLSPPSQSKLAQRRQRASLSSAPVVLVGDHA

[9] = molecular target: T1, kinases (KINOMEscan panel) (Homo sapiens, UniProt Q8N752); conditions: CSNK1A1L; NEW KINOMEscan
T1 sequence (Q8N752 1-337): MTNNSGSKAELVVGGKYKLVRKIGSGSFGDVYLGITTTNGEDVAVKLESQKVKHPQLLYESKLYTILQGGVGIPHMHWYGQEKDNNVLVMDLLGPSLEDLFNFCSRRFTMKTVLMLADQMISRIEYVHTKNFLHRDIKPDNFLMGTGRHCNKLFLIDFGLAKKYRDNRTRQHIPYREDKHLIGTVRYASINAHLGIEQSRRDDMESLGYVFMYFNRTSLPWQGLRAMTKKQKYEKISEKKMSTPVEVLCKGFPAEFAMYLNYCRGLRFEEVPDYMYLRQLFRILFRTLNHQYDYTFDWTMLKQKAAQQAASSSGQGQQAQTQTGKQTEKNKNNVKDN

[10] = molecular target: T2, kinases (KINOMEscan panel) (Homo sapiens, UniProt P54760); conditions: EPHB4; NEW KINOMEscan
T2 sequence (P54760 16-987): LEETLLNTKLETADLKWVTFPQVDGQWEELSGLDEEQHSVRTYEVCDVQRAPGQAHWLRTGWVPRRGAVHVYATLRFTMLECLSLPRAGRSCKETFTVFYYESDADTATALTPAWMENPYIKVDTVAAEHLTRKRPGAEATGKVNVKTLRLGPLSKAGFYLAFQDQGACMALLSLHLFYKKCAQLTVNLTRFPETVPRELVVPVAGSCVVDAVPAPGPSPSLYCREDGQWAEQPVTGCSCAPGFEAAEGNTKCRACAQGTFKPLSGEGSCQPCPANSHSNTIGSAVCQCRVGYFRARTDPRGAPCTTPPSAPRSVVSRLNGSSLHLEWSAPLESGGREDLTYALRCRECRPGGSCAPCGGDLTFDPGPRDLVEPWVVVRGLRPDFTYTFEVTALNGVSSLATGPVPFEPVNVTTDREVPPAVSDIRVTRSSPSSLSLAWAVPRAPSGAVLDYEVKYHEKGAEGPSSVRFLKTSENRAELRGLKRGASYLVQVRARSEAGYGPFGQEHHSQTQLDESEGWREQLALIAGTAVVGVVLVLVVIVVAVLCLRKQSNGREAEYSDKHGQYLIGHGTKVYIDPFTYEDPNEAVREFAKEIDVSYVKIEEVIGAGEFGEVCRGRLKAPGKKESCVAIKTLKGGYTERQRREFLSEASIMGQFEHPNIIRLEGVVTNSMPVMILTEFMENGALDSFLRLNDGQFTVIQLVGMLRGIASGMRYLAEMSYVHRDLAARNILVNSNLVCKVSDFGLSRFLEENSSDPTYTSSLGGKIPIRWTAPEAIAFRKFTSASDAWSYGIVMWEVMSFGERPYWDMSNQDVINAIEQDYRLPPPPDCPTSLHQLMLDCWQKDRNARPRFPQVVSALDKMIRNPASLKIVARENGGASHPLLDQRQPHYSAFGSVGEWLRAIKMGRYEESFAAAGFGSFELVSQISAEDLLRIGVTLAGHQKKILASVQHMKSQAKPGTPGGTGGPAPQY

[11] = molecular target: kinases (KINOMEscan panel) (Homo sapiens, UniProt Q7KZI7); conditions: MARK2; NEW KINOMEscan
[12] = molecular target: kinases (KINOMEscan panel) (Homo sapiens, UniProt Q9UBF8); conditions: kinase PI4KB; NEW KINOMEscan
[13] = molecular target: T3, kinases (KINOMEscan panel) (Homo sapiens, UniProt Q9BRS2); conditions: RIOK1; NEW KINOMEscan
T3 sequence (Q9BRS2 1-568): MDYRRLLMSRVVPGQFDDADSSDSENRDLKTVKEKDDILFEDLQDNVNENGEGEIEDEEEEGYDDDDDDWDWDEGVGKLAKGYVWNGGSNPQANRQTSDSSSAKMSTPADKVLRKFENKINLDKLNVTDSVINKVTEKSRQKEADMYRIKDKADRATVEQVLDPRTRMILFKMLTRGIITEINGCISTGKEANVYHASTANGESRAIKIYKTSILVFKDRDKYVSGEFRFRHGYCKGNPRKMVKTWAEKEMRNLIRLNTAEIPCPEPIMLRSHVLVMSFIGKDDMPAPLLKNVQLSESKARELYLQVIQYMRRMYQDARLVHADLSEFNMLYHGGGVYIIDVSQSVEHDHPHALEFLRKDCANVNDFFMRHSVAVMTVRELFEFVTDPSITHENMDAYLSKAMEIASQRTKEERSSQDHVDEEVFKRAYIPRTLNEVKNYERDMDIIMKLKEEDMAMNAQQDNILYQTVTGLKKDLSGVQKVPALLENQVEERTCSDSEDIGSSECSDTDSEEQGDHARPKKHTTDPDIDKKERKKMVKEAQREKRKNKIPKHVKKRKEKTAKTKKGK

[14] = molecular target: kinases (KINOMEscan panel) (Homo sapiens, UniProt P00533, G719S); conditions: EGFR(G719S); NEW KINOMEscan
kinases (KINOMEscan panel) (Homo sapiens, UniProt P00533, G719S), sequence (P00533 25-1210 G719S): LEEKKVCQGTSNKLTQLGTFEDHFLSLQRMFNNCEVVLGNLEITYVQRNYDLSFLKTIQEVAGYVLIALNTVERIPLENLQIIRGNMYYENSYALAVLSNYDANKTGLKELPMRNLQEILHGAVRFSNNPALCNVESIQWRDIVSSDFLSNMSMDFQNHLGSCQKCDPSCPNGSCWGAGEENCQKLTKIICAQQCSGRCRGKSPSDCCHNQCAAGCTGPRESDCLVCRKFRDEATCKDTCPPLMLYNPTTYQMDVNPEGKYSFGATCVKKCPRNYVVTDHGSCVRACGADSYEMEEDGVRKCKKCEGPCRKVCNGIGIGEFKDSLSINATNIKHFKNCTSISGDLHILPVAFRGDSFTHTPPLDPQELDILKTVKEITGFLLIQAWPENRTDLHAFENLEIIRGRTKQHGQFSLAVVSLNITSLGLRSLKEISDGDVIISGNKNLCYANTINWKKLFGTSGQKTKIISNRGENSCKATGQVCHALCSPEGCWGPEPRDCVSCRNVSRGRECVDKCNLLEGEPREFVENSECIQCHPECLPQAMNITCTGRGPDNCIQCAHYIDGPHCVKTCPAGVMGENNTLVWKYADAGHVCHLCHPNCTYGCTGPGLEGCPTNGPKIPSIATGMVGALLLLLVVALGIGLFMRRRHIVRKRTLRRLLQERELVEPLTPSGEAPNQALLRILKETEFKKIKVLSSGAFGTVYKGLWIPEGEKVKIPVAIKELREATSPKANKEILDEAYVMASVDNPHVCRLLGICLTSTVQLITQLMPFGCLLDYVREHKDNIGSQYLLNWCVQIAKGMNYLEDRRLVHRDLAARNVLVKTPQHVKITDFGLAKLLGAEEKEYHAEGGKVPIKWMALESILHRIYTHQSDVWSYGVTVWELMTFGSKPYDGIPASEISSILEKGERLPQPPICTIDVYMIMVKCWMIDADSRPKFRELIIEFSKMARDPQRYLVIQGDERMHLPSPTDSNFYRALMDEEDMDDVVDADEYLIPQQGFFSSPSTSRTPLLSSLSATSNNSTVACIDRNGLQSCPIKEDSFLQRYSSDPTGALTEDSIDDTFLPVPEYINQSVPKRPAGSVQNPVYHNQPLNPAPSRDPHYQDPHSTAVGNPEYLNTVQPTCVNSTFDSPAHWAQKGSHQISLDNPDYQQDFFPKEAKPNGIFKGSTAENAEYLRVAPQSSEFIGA

[15] = molecular target: kinases (KINOMEscan panel) (Homo sapiens, UniProt Q9H4A3); conditions: NEW KINOMEscan

kinases (KINOMEscan panel) (Homo sapiens, UniProt P49336), sequence (P49336 whole entry): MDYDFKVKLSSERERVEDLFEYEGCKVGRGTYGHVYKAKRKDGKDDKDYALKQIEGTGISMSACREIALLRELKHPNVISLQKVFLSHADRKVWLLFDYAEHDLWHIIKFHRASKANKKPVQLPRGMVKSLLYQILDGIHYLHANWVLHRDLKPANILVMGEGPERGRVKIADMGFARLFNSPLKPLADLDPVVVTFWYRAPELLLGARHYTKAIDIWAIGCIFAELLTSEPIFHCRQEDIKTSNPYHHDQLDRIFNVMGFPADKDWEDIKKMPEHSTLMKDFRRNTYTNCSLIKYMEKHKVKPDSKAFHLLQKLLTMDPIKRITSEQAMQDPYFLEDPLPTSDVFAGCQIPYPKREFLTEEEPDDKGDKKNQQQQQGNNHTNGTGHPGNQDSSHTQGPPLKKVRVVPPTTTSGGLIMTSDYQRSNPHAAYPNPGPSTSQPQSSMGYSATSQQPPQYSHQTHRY

SMILES: Cc1cccc(-c2nc(N(C)c3ccc4ncsc4c3)c3ccccc3n2)n1 [NK-161]
- KINOMEscan BMPR1A [1]: 4
- KINOMEscan CDK8 [2]: 12
- KINOMEscan CAMK2D [3]: 0
- KINOMEscan LRRK2 [4]: 27
- KINOMEscan ROCK1 [5]: 12
- KINOMEscan ABL1(F317L)-nonphosphorylated [6]: 18
- KINOMEscan ABL1(F317L)-phosphorylated [6]: 0
- KINOMEscan LYN [7]: 12
- KINOMEscan MKNK2 [8]: 0
- KINOMEscan CSNK1A1L [9]: 12
- KINOMEscan EPHB4 [10]: 0
- KINOMEscan MARK2 [11]: 0
- KINOMEscan PI4KB [12]: 0
- KINOMEscan RIOK1 [13]: 0
- KINOMEscan EGFR(G719S) [14]: 0
- KINOMEscan WNK1 [15]: 9

SMILES: Cc1cccc(-c2nc(Nc3ccc4nn(C)cc4c3)c3ccccc3n2)n1 [NK167]
- KINOMEscan BMPR1A [1]: 13
- KINOMEscan CDK8 [2]: 19
- KINOMEscan CAMK2D [3]: 0
- KINOMEscan LRRK2 [4]: 21
- KINOMEscan ROCK1 [5]: 0
- KINOMEscan ABL1(F317L)-nonphosphorylated [6]: 30
- KINOMEscan ABL1(F317L)-phosphorylated [6]: 0
- KINOMEscan LYN [7]: 17
- KINOMEscan MKNK2 [8]: 0
- KINOMEscan CSNK1A1L [9]: 0
- KINOMEscan EPHB4 [10]: 0
- KINOMEscan MARK2 [11]: 0
- KINOMEscan PI4KB [12]: 0
- KINOMEscan RIOK1 [13]: 1
- KINOMEscan EGFR(G719S) [14]: 0
- KINOMEscan WNK1 [15]: 0
